Source: the NIST ThermoML archive (doi:10.1016/j.jct.2019.03.025)

Assay: xn = mol fraction of the nth substance listed
Details: Liquid, Vibrating tube method

Cc1cccc(C)c1 [1,3-dimethylbenzene] + CCCCCCCCCC
mass density [kg/m3]
Details	x2 = 0	x2 = 0.2005	x2 = 0.3999	x2 = 0.603	x2 = 0.7998
293.15 K, 100 kPa	864.2	825.1	793.6	768.3	748.3
293.15 K, 1000 kPa	864.4	825.4	794.1	768.8	748.9
293.15 K, 3000 kPa	865.8	826.8	795.4	770.2	750.2
293.15 K, 5000 kPa	866.9	828	796.6	771.4	751.5
293.15 K, 10000 kPa	870.5	831.7	800.4	775.2	755.2
293.15 K, 15000 kPa	873.8	835.1	803.7	778.6	758.6
293.15 K, 20000 kPa	877	838.3	807	781.8	761.8
293.15 K, 25000 kPa	880.2	841.5	810.2	785	765.1
293.15 K, 30000 kPa	883.2	844.5	813.3	788.1	768.2
293.15 K, 35000 kPa	886	847.3	816.1	790.9	771
293.15 K, 40000 kPa	888.7	850.1	818.8	793.7	773.8
293.15 K, 50000 kPa	894.4	855.8	824.5	799.4	779.4
293.15 K, 60000 kPa	899.1	860.6	829.2	804	784.1
303.15 K, 100 kPa	855	816	784.6	759.3	739.4
303.15 K, 1000 kPa	855.4	816.7	785.6	760.5	740.8
303.15 K, 3000 kPa	857.5	818.7	787.4	762.3	742.4
303.15 K, 5000 kPa	858.8	820.1	789	763.9	744
303.15 K, 10000 kPa	862.3	823.8	792.5	767.5	747.7
303.15 K, 15000 kPa	865.8	827.3	796.2	771.2	751.4
303.15 K, 20000 kPa	869	830.6	799.5	774.4	754.7
303.15 K, 25000 kPa	872.2	833.8	802.7	777.8	758
303.15 K, 30000 kPa	875.3	837	805.9	780.9	761.2
303.15 K, 35000 kPa	878.2	840.1	809	784.1	764.3
303.15 K, 40000 kPa	881	842.9	811.8	786.9	767.1
303.15 K, 50000 kPa	886.7	848.6	817.5	792.6	772.8
303.15 K, 60000 kPa	892	853.9	822.7	797.8	778
313.15 K, 100 kPa	846.7	808.1	777	752	732.3
313.15 K, 1000 kPa	846.9	808.4	777.4	752.5	732.8
313.15 K, 3000 kPa	848.6	810.1	779.1	754.1	734.4
313.15 K, 5000 kPa	850.1	811.7	780.8	755.8	736.1
313.15 K, 10000 kPa	854	815.7	784.7	759.8	740.2
313.15 K, 15000 kPa	857.6	819.4	788.5	763.6	743.9
313.15 K, 20000 kPa	861.1	822.9	792.1	767.2	747.6
313.15 K, 25000 kPa	864.5	826.4	795.6	770.7	751.1
313.15 K, 30000 kPa	867.7	829.7	798.8	773.9	754.3
313.15 K, 35000 kPa	870.9	833	802.1	777.2	757.6
313.15 K, 40000 kPa	873.8	835.9	805	780.1	760.5
313.15 K, 50000 kPa	879.8	841.9	810.9	786.1	766.4
313.15 K, 60000 kPa	885.1	847.2	816.2	791.3	771.6
323.15 K, 100 kPa	837.7	799.4	768.6	743.9	724.4
323.15 K, 1000 kPa	838.6	800.3	769.5	744.7	725.2
323.15 K, 3000 kPa	840.2	802	771.3	746.5	727
323.15 K, 5000 kPa	841.9	803.8	773.1	748.3	728.8
323.15 K, 10000 kPa	845.9	808	777.3	752.6	733.1
323.15 K, 15000 kPa	849.8	811.9	781.2	756.6	737.1
323.15 K, 20000 kPa	853.6	815.8	785.1	760.4	741
323.15 K, 25000 kPa	857	819.2	788.6	763.8	744.4
323.15 K, 30000 kPa	860.4	822.7	792.1	767.4	747.9
323.15 K, 35000 kPa	863.7	826	795.3	770.6	751.2
323.15 K, 40000 kPa	866.9	829.2	798.6	773.9	754.4
323.15 K, 50000 kPa	873	835.3	804.7	779.9	760.4
323.15 K, 60000 kPa	878.8	841.2	810.5	785.8	766.3
